Experimental data: the supplement of paper PMC7224384

Assays:
[1] = tested on: MDA-MB-453; experiment: drug sensitivity score (DSS), single agent (DSS (weighted AUC score)); higher = more sensitive (stronger viability decrease); extreme values may be limits of the assay; settings: BLU9931 0 nM; 72 h
In short: (§1)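 Drug sensitivity scores come from a weighted area under a four-parameter logistic fit to percent viability, normalised per plate to control wells. Viability was based on cellular ATP read with CellTiterGlo 2.0 after 72 h at 37 °C, 5% CO2. Each 384-well plate carried FIMM Oncology set compounds in singlicate at five 10-fold dilutions, with 2000 MDA-MB-453 cells per well in medium with or without an FGFR4 inhibitor at 100 nM final.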

[2] = tested on: MDA-MB-453; experiment: drug sensitivity score (DSS), in combination with BLU9931 (DSS (weighted AUC score)); higher = more sensitive (stronger viability decrease); extreme values may be limits of the assay; settings: BLU9931 100 nM; 72 h
In short: as §1

CC[C@@H]1C(=O)N(C)c2cnc(Nc3ccc(C(=O)NC4CCN(C)CC4)cc3OC)nc2N1C1CCCC1 [BI 2536]
drug sensitivity score [1]: 10.4
drug sensitivity score [2]: 9.2

CCCCCCCCc1ccc(CCC(N)(CO)CO)cc1 [Fingolimod]
drug sensitivity score [1]: 8.7
drug sensitivity score [2]: 7.7

S=c1[nH]cnc2nc[nH]c12 [Mercaptopurine]
drug sensitivity score [1]: 10.9
drug sensitivity score [2]: 0.7

COC(=O)c1ccc2c(c1)[nH]c1ncnc(NCCCN3CCCCC3)c12 [UM729]
drug sensitivity score [1]: 2
drug sensitivity score [2]: 1.3

C[C@@]1(C(=O)Nc2ccc(F)nc2)CCCN1c1nc(Nc2cc(C3CC3)n[nH]2)c2cccn2n1
drug sensitivity score [1]: 0
drug sensitivity score [2]: 0

CNc1nc(Nc2cn(C(C)(C)C#N)nc2C)ncc1C(F)(F)F [GNE-0877]
drug sensitivity score [1]: 0
drug sensitivity score [2]: 0

COc1cc([C@@H]2c3cc4c(cc3[C@@H](O[C@@H]3O[C@@H]5CO[C@@H](c6cccs6)O[C@H]5[C@H](O)[C@H]3O)[C@H]3COC(=O)[C@H]23)OCO4)cc(OC)c1O [Teniposide]
drug sensitivity score [1]: 0
drug sensitivity score [2]: 0

CC[C@H](Nc1ncnc2[nH]cnc12)c1nc2cccc(F)c2c(=O)n1-c1ccccc1 [Idelalisib]
drug sensitivity score [1]: 1.7
drug sensitivity score [2]: 2

CCn1c(-c2nonc2N)nc2cnc(Oc3cccc(NC(=O)c4ccc(OCCN5CCOCC5)cc4)c3)cc21
drug sensitivity score [1]: 3.9
drug sensitivity score [2]: 3.8

C[C@]12CC[C@@H]3c4ccc(O)cc4C[C@@H](CCCCCCCCC[S+]([O-])CCCC(F)(F)C(F)(F)F)[C@H]3[C@@H]1CC[C@@H]2O (stereo partly drawn) [Fulvestrant]
drug sensitivity score [1]: 0
drug sensitivity score [2]: 0

C[C@H]1Oc2cc(cnc2N)-c2c(nn(C)c2C#N)CN(C)C(=O)c2ccc(F)cc21
drug sensitivity score [1]: 0
drug sensitivity score [2]: 2.1

CNC(=O)c1ccc2cc([C@@]3(O)CCn4cncc43)ccc2c1 [Orteronel]
drug sensitivity score [1]: 0
drug sensitivity score [2]: 0

CNC(=O)c1ccc(C)c(-n2c(C)cc(OCc3ccc(F)cc3F)c(Br)c2=O)c1
drug sensitivity score [1]: 0.1
drug sensitivity score [2]: 0

Cc1cc2c(C(=O)NC[C@H](C)c3ccccc3)c(O)c(O)cc2c(O)c1-c1c(C)cc2c(C(=O)NC[C@H](C)c3ccccc3)c(O)c(O)cc2c1O [Sabutoclax]
drug sensitivity score [1]: 12.6
drug sensitivity score [2]: 12.4

Cc1sc2c(c1C)C(c1ccc(Cl)cc1)=N[C@@H](CC(=O)Nc1ccc(OCCOCCOCCOCCNc3cccc4c3C(=O)N(C3CCC(=O)NC3=O)C4=O)cc1)c1nnc(C)n1-2 (stereo partly drawn) [ARV-825]
drug sensitivity score [1]: 10.1
drug sensitivity score [2]: 10.7

Cc1nc(Nc2ncc(C(=O)Nc3c(C)cccc3Cl)s2)cc(N2CCN(CCO)CC2)n1 [Dasatinib]
drug sensitivity score [1]: 0
drug sensitivity score [2]: 0

CCCCOc1nc(N)c2c(n1)N(Cc1cccc(CN3CCCC3)c1)CC(=O)N2 [Vesatolimod]
drug sensitivity score [1]: 3
drug sensitivity score [2]: 0

CCn1c(-c2nonc2N)nc2c(C#CC(C)(C)O)ncc(OC[C@H]3CCCNC3)c21
drug sensitivity score [1]: 13
drug sensitivity score [2]: 15

C[C@@H](Oc1cc(-c2cnn(C3CCNCC3)c2)cnc1N)c1c(Cl)ccc(F)c1Cl [Crizotinib]
drug sensitivity score [1]: 0
drug sensitivity score [2]: 0

C[C@H](Nc1ncnc2nc[nH]c12)c1cc2cccc(Cl)c2c(=O)n1-c1ccccc1 [Duvelisib]
drug sensitivity score [1]: 0
drug sensitivity score [2]: 0

Nc1nccc(-c2c(-c3ccc(F)cc3)ncn2C2CCCCC2)n1
drug sensitivity score [1]: 1.1
drug sensitivity score [2]: 0.6

Cc1c(Cn2c(C)nc3c(C(=O)O)cc(N4CCOCC4)cc32)cccc1C(F)(F)F
drug sensitivity score [1]: 0
drug sensitivity score [2]: 0

COC(=O)C[C@](O)(CCCC(C)(C)O)C(=O)O[C@@H]1C(OC)=C[C@]23CCCN2CCc2cc4c(cc2[C@H]13)OCO4 [Omacetaxine]
drug sensitivity score [1]: 22.1
drug sensitivity score [2]: 20.5

Cc1ccc(F)c(NC(=O)Nc2ccc(-c3cccc4[nH]nc(N)c34)cc2)c1 [Linifanib]
drug sensitivity score [1]: 0
drug sensitivity score [2]: 0
